Common to all, as to type: functional
For test [1], the system named is Bel-7402. Put plainly: Cytotoxicity against human Bel7402 cells assessed as growth inhibition at 1 ug/ml after 24 hrs by MTT assay. Conditions: Bel-7402, 24 h, read-out: GI. For orientation: Formazan colour is commonly taken as a measure of viable cells.
In test [2] the test system is Bel-7402. The test is described as follows: Cytotoxicity against human Bel7402 cells assessed as growth inhibition at 0.1 ug/ml after 24 hrs by MTT assay. Conditions: Bel-7402, 24 h, read-out: GI.
The subject of test [3] is Bel-7402. Put plainly: Cytotoxicity against human Bel7402 cells assessed as growth inhibition at 10 ug/ml after 24 hrs by MTT assay. Conditions: Bel-7402, 24 h, read-out: GI.
Test [4] is described as follows: Cytotoxicity against human HO8910 cells assessed as growth inhibition at 1 ug/ml after 24 hrs by MTT assay. The settings on record: HO-8910, 24 h, read-out: GI.
Test [5] has as its system NCI-H460. The test is described as follows: Cytotoxicity against human NCI-H460 cells assessed as growth inhibition at 10 ug/ml after 24 hrs by MTT assay. The settings on record: NCI-H460, 24 h, read-out: GI.
Test [6] has as its system KB. The test is described as follows: Cytotoxicity against human KB cells assessed as growth inhibition at 10 ug/ml after 24 hrs by MTT assay. The settings on record: read-out: GI.
The test system of test [7] is Bel-7402. Put plainly: Cytotoxicity against human Bel7402 cells assessed as growth inhibition at 100 ug/ml after 24 hrs by MTT assay. The settings on record: Bel-7402, 24 h, read-out: GI.
Test [8] in a line: Cytotoxicity against human HO8910 cells assessed as growth inhibition at 0.1 ug/ml after 24 hrs by MTT assay. The settings on record: HO-8910, 24 h, read-out: GI.
The subject of test [9] is NCI-H460. The test is described as follows: Cytotoxicity against human NCI-H460 cells assessed as growth inhibition at 0.1 ug/ml after 24 hrs by MTT assay. The settings on record: NCI-H460, 24 h, read-out: GI.
Test [10] concerns KB. Put plainly: Cytotoxicity against human KB cells assessed as growth inhibition at 100 ug/ml after 24 hrs by MTT assay. The settings on record: read-out: GI.
Test [11] relates to NCI-H460. The test is described as follows: Cytotoxicity against human NCI-H460 cells assessed as growth inhibition at 100 ug/ml after 24 hrs by MTT assay. Conditions: NCI-H460, 24 h, read-out: GI.
The subject of test [12] is NCI-H460. The test is described as follows: Cytotoxicity against human NCI-H460 cells assessed as growth inhibition at 1 ug/ml after 24 hrs by MTT assay. The settings on record: NCI-H460, 24 h, read-out: GI.
For test [13], the system named is KB. Put plainly: Cytotoxicity against human KB cells assessed as growth inhibition at 0.1 ug/ml after 24 hrs by MTT assay. Conditions: read-out: GI.
In test [14] the test system is KB. The test is described as follows: Cytotoxicity against human KB cells assessed as growth inhibition at 1 ug/ml after 24 hrs by MTT assay. The settings on record: read-out: GI.
Test [15] is described as follows: Cytotoxicity against human HO8910 cells assessed as growth inhibition at 100 ug/ml after 24 hrs by MTT assay. The settings on record: HO-8910, 24 h, read-out: GI.
The nature of test [16]: Cytotoxicity against human HO8910 cells assessed as growth inhibition at 10 ug/ml after 24 hrs by MTT assay. Conditions: HO-8910, 24 h, read-out: GI.

SMILES strings stand for the structures.

As to `Cc1cccc(NC(=O)CCCCC(S)CCS)c1` (centres undefined), the inhibition of growth at 1 µg/mL amounted to 11.1% in test [1], 2.76% in test [4], 9.43% in test [12] and 3.31% in [14]. The inhibition of growth at 0.1 µg/mL in test [2] turned out to be 10.1%; in test [8], 4.92%; in test [9], 9.34%; in test [13] it was 5.75%. The inhibition of growth at 10 µg/mL in [3] came out at 14.1%; in test [5], 7.67%; in test [6] it was 7.23%. Moreover, the figures for the inhibition of growth at 100 µg/mL in test [7], in test [10] and in test [11] were 7.08%, 17.5% and 23.1%, respectively.

As to `O=C(CCCCC(S)CCS)Nc1ccccn1` (centres undefined), the inhibition of growth at 100 µg/mL in [15] turned out to be 14.2%; in test [7] it was 3.62%; in test [10], 18.5%; in [11] it was 11.7%. Besides, in test [6], the inhibition of growth at 10 µg/mL came out at 0.28%. Moreover, the inhibition of growth at 0.1 µg/mL in [9] amounted to 5.01%. Further, the inhibition of growth at 1 µg/mL in test [12] came out at 2.31%.

As for `O=C(CCCCC(S)CCS)Nc1ccccc1Cl` (centres undefined), the inhibition of growth at 1 µg/mL in test [1] came to 3.08%; in [4], 7.72%; in test [12] it was 8.19%. In addition, the inhibition of growth at 0.1 µg/mL in test [2] is 5.11%; in test [8] it was 6.11%; in test [9], 6.36%. In addition, the inhibition of growth at 10 µg/mL in test [5] turned out to be 18.2%. Further, in test [11], the inhibition of growth at 100 µg/mL came to 12.1%.

For the compound `O=C(CCCCC(S)CCS)Nc1cccc(Cl)c1` (centres undefined), the inhibition of growth at 1 µg/mL turned out to be 1.14% in test [1] and 7.2% in [12]. Further, the inhibition of growth at 0.1 µg/mL in test [2] came to 3.09%; in test [9], 9.78%. In test [3], the inhibition of growth at 10 µg/mL came to 3.22%. In addition, the inhibition of growth at 100 µg/mL in test [7] worked out at 16.1%; in test [10] it was 8.04%; in [11] it was 24.8%.

`O=C(CCCCC(S)CCS)Nc1ccc(Cl)cc1` (centres undefined): the inhibition of growth at 1 µg/mL turned out to be 0.27% in test [1], 2.81% in test [4], 6.76% in [12] and 13.3% in test [14]. The inhibition of growth at 0.1 µg/mL in [2] worked out at 1.06%; in test [8], 1.04%; in test [13], 9.11%. Besides, the figures for the inhibition of growth at 10 µg/mL in [3], in test [5] and in [6] were 1.16%, 21.9% and 18.2%, respectively. The inhibition of growth at 100 µg/mL is 21.3% in test [15], 25.5% in test [7], 44.1% in test [10] and 40.9% in test [11].

Take `O=C(CCCCC1CCSS1)Nc1cccc2ccccc12` (centres undefined): the inhibition of growth at 1 µg/mL turned out to be 9.55% in [1], 6.95% in test [4], 4.15% in test [12] and 8.37% in test [14]. Moreover, the results for the inhibition of growth at 0.1 µg/mL in test [2], in test [8] and in test [9] were 3.4%, 0.34% and 2.36%, respectively. In test [3], the inhibition of growth at 10 µg/mL was determined as 6.27%. Besides, the inhibition of growth at 100 µg/mL in test [7] was determined as 7.22%.

As to `CC(=O)SCCC(CCCCC(=O)Nc1cccc(Cl)c1)SC(C)=O` (centres undefined), the inhibition of growth at 1 µg/mL in [1] came out at 0.56%; in test [12] it was 0.31%; in test [14] it was 0.04%. The inhibition of growth at 0.1 µg/mL in test [2] is 3.72%; in test [8] it was 0.27%; in test [13], 5.72%. The inhibition of growth at 10 µg/mL in test [5] is 2.09%. Moreover, the inhibition of growth at 100 µg/mL in test [15] came to 38.1%; in [7], 20.8%; in [10] it was 48.8%; in test [11], 42.8%.

For `O=C(CCCCC(CCSC(=O)c1ccccc1)SC(=O)c1ccccc1)Nc1ccc(Cl)cc1` (centres undefined), the inhibition of growth at 1 µg/mL in test [1] turned out to be 9.62%; in test [4], 1.29%; in test [12], 9.8%; in test [14], 11.7%. Further, the inhibition of growth at 0.1 µg/mL in test [2] worked out at 9.2%; in [8], 3.68%; in [9], 9.36%; in [13], 16.9%. Also, the results for the inhibition of growth at 10 µg/mL in test [3], in [5] and in test [6] were 4.87%, 12.6% and 10.6%, respectively. For the same compound, the inhibition of growth at 100 µg/mL in [10] was 5.78%.

`O=C(CCCCC1CCSS1)Nc1ccccn1` (centres undefined): the inhibition of growth at 0.1 µg/mL amounted to 0.89% in [2], 1.14% in [8] and 2.61% in [9]. In test [3], the inhibition of growth at 10 µg/mL was found to be 5.77%. The inhibition of growth at 100 µg/mL came out at 51.9% in test [15], 37.6% in test [7], 25.1% in test [10] and 39.3% in test [11]. Besides, the inhibition of growth at 1 µg/mL in test [12] was 0.81%.

`O=C(CCCCC(CCSC(=O)c1ccccc1)SC(=O)c1ccccc1)Nc1cccc(Cl)c1` (centres undefined): the inhibition of growth at 0.1 µg/mL in [2] is 1.7%; in [8] it was 9.02%; in test [9] it was 15.6%; in test [13] it was 10.7%. Moreover, the inhibition of growth at 1 µg/mL in test [4] came out at 3.38%; in test [12], 9.48%; in test [14], 12.7%. Besides, the inhibition of growth at 10 µg/mL in [5] is 9.12%; in [6] it was 16.6%.

Regarding `O=C(CCCCC1CCSS1)Nc1ccc(Br)cn1` (centres undefined), the inhibition of growth at 1 µg/mL in test [1] turned out to be 13.1%; in test [4] it was 4.27%; in test [12], 13.1%; in test [14], 4.33%. The inhibition of growth at 10 µg/mL in test [3] was 24.5%; in [5] it was 38%; in test [16], 29.6%; in test [6], 35.1%. The inhibition of growth at 100 µg/mL in [15] was 32.1%; in test [7], 45.5%; in test [10], 42.3%; in test [11] it was 52%. Further, in test [9], the inhibition of growth at 0.1 µg/mL was 9%.

Regarding `O=C(CCCCC(CCSC(=O)c1ccccc1)SC(=O)c1ccccc1)Nc1ccccc1` (centres undefined), the inhibition of growth at 1 µg/mL in [4] is 3.79%; in test [12], 5.93%. The inhibition of growth at 10 µg/mL in test [5] was 11.4%; in test [6], 2.67%. Also, the inhibition of growth at 0.1 µg/mL is 3.12% in [8], 0.6% in test [9] and 1.52% in test [13].

With `O=C(CCCCC(S)CCS)Nc1ccc(Br)cn1` (centres undefined), the inhibition of growth at 1 µg/mL worked out at 4.71% in test [1], 2.51% in [4], 10.7% in test [12] and 2.51% in test [14]. Also, the inhibition of growth at 10 µg/mL was determined as 23.2% in test [3], 39.2% in test [5], 29.4% in test [16] and 34.1% in test [6]. The inhibition of growth at 100 µg/mL was found to be 56.8% in [15], 41.1% in test [7], 59.2% in test [10] and 55.9% in test [11]. Also, the inhibition of growth at 0.1 µg/mL in test [9] came to 6.4%.

With `CC(=O)SCCC(CCCCC(=O)Nc1ccccc1Cl)SC(C)=O` (centres undefined), the inhibition of growth at 1 µg/mL turned out to be 5.01% in test [1], 13.2% in test [12] and 8.21% in test [14]. For the same compound, the inhibition of growth at 0.1 µg/mL in [2] was determined as 6.61%; in test [8], 2.48%; in test [9], 16.6%; in test [13], 7.05%. The inhibition of growth at 10 µg/mL was 3.09% in test [3], 11.4% in test [5] and 6.55% in [6]. For the same compound, the inhibition of growth at 100 µg/mL is 6.93% in test [10] and 15.2% in test [11].

Consider `O=C(CCCCC1CCSS1)NO` (centres undefined), for which the results for the inhibition of growth at 1 µg/mL in [1], in [12] and in test [14] were 7.39%, 0.64% and 2.57%, respectively. In addition, the values for the inhibition of growth at 0.1 µg/mL in test [2], in [9] and in test [13] were 10.4%, 3.9% and 7.92%, respectively. Further, the values for the inhibition of growth at 10 µg/mL in [3] and in [6] were 11.8% and 0.89%, respectively. The inhibition of growth at 100 µg/mL in test [7] worked out at 12.5%; in test [10] it was 12.4%.

With `O=C(CCCCC(S)CCS)Nc1cccc2ccccc12` (centres undefined), in test [1], the inhibition of growth at 1 µg/mL came to 0.69%. Further, the inhibition of growth at 0.1 µg/mL in [8] came out at 0.76%. The inhibition of growth at 100 µg/mL in [11] is 2.18%.

Values taken from ChEMBL document CHEMBL1157124, “Synthesis and anticancer evaluation of alpha-lipoic acid derivatives” (Bioorg Med Chem Lett, 2010).
